The text below walks through data of article PMC7248897, “Synthesis, Biological Evaluation and In Silico Studies of Certain Oxindole–Indole Conjugates as Anticancer CDK Inhibitors” (Molecules, 2020).

Molecules are shown by their SMILES.

Assay [1] relates to MDA-MB-231 breast cancer cell line. The experiment in a line: SRB anti-proliferative assay, MDA-MB-231. In kind it is cell-based, human. To be noted: for IC50: Homo sapiens, MDA-MB-231, SRB assay, 48 h, mean ± S.D. from 3 separate experiments, read-out: IC50 MDA-MB-231. The method, then: (§1) Cytotoxicity was assessed following the SRB colorimetric assay protocol, as reported earlier.
(§2) 1. Anti-proliferative action toward human breast cell lines […]
(§3) have been obtained from American Type Culture Collection (ATCC). The cells were maintained in Dulbecco's modified Eagle's medium (DMEM) supplemented with 10% heat inactivated fetal calf serum (GIBCO), penicillin (100 U/ml) and streptomycin (100 µg/ml) at 37 °C in humidified atmosphere containing 5% CO2. Cells at a concentration of […]
(§4) The anti-proliferative activity of the tested hybrids 6a-i, 9a-f and 11a, b was measured in vitro using the Sulfo-Rhodamine-B stain (SRB) assay. Briefly, Cells were inoculated in 96-well microtiter plate (5X104 cells/ well) for 24 h before treatment with the tested compounds to allow attachment of cell to the wall of the plate. Tested compounds were dissolved in DMSO at 1 mg/ml immediately before use and diluted to the appropriate volume just before addition to the cell culture. Different concentrations of tested compounds, doxorubicin and sorafenib were added to the cells (three wells were prepared for each individual dose). Cells were incubated with the compounds for 48 h at 37°C and in atmosphere of 5% CO2. After 48 h cells were fixed, washed, and stained for 30 min with 0.4% (w/v) SRB dissolved in 1% acetic acid. Unbound dye was removed by four washes with 1% acetic acid, and attached stain was recovered with Tris-EDTA buffer.
(§5) Color intensity was measured in an ELISA reader. […]

For a further assay, the system named is MCF-7 cells. In words: Annexin V-FITC apoptosis assay. The format is cell-based, human. To be noted: for fold increase of entire apoptosis percentage: MCF-7, in comparison to the control (DMSO); for percent of Anx V-FITC positive cells (entire apoptosis): MCF-7 cells treated at IC50. On the procedure:
Anx V-based flow cytometry assay represents a helpful tactic for determining whether death of cells is attributed to programmed apoptosis or to uncontrolled necrosis.
This clearly verifies that cell death resulting from the anti-proliferative action of the target hybrids was attributable to physiological apoptosis and not to nonspecific necrosis.
Assessment of the levels for the proapoptotic markers (Bax, caspase-3, and p53) as well as the antiapoptotic marker (Bcl-2) was carried out through the use of ELISA colorimetric kits in accordance with the manufacturer’s instructions, as mentioned earlier. In addition, the pro-apoptotic potential of indoles 6e and 6f towards MCF-7 cells was evaluated through an FITC Annexin V apoptosis detection kit by flow cytometry, in accordance with the manufacturer’s protocol and referring to the reported procedures. […]
4. Annexin V-FITC Apoptosis Assay
Phosphatidylserine externalization was assayed using Annexin V-FITC/PI apoptosis detection kit (BD Biosciences, USA) according to the manufacturer’s instructions. Breast cancer MCF-7 cells were cultured to a monolayer then treated with hybrids 6e and 6f at their IC50 concentration. Briefly, cells were then harvested via trypsinization, and rinsed twice in PBS followed by binding buffer. Moreover, cells were re-suspended in 100 μL of binding buffer with the addition of 1 μL of FITC-Annexin V followed by an incubation period of 30 min at 4 °C. Cells were then rinsed in binding buffer and resuspended in 150 μL of binding buffer with the addition of 1 μL of DAPI (1 μg/μL in PBS). Cells were then analyzed using the flow cytometer BD FACS Canto II and the results were interpreted with FlowJo7.6.4 software (Tree Star, Ashland, OR, USA).

In the next assay the target is CDK9 (Homo sapiens, UniProt P50750). The experiment in a line: CDK9 kinase inhibition (Reaction Biology HotSpot). Particulars: read-out: % Enzyme Inhibitory Activity CDK9.
A further assay addresses T1, CDK4 (Homo sapiens, UniProt P11802).
T1 construct: purchased Reaction Biology Corp. (Kinase HotSpot service)
In words: CDK4 kinase inhibition (Reaction Biology HotSpot). The format is biochemical. To be noted: for inhibition at 20 µM: single dose of 20 µM. The source says:
5. CDK Kinase Inhibitory Activity
along with required cofactors.
Kinase activity data were
(dimethyl sulfoxide) reactions.

A further assay concerns Bcl-2. In words: ELISA of Bcl-2 level in MCF-7 cells. In kind it is cell-based, human. To be noted: for fold decrease of Bcl-2 level: MCF-7, vs control; for Bcl-2: MCF-7 cells treated at IC50, 48 h, control 4.65 ± 0.23. The method, then:
(§6) Homogeneously, both conjugates were able to decrease the level of the anti-apoptotic Bcl-2 protein by 2.12-, and 1.7-fold, respectively (Table 3). As a more analytical variable, the Bax/Bcl-2 ratio was verified to be amplified by conjugates 6e and 6f, 18- and 12-fold, respectively.
(§7) Assessment of the levels for the proapoptotic markers (Bax, caspase-3, and p53) as well as the antiapoptotic marker (Bcl-2) was carried out through the use of ELISA colorimetric kits in accordance with the manufacturer’s instructions, as mentioned earlier. In addition, the pro-apoptotic potential of indoles 6e and 6f towards MCF-7 cells was evaluated through an FITC Annexin V apoptosis detection kit by flow cytometry, in accordance with the manufacturer’s protocol and referring to the reported procedures.
(§8) The levels of the pro-apoptotic markers (Bax, caspase-3 and p53) as well as the anti-apoptotic marker Bcl-2 were determined using ELISA colorimetric kits per the manufacturer’s instructions. Breast cancer MCF-7 cells were cultured as a monolayer in T-25 flasks and were seeded to attain 30% confluency prior to treatment. Cells were then […]
(§9) of treatment, cells were collected via trypsinization and centrifuged at 10,000 rpm. The pellet was then rinsed with PBS and lysed in RIPA lysis buffer at 4 °C for 45 min, then centrifuged at 14,000 rpm for 20 min to remove the cellular debris. Lysates were then collected and stored at −80 °C for later protein determination using Pierce BCA Protein Assay Kit according to manufacturer’s recommendations.
(§10) The cell lysate was diluted 10 times, and 100 μL ([…]) was added to the wells of four separate microtiter plates for the four ELISA kits that were pre-coated with primary antibodies specific to Bax, Bcl-2, caspase-3 and p53 proteins, respectively. A secondary biotin-linked antibody specific to the protein captured by the primary antibody was further added to bind the captured protein, forming a “sandwich” of specific antibodies around the desired protein in the cell lysate. The streptavidin-HRP complex was then used to bind the biotin-linked secondary antibody through its streptavidin portion. The HRP domain reacted with the added TMB substrate to form a colored product that measured at 450 nm by a plate reader ChroMate-4300 after the reaction was terminated via the addition of stop solution. […]
(§11) Cells were then rinsed in binding buffer and resuspended in 150
(§12) μL of binding buffer with the addition of 1 μL of DAPI (1 μg/μL in PBS). […]
On the technique in general: An ELISA detects its analyte on a solid surface through an enzyme-linked reagent.

The next assay deals with p53. The experiment in a line: ELISA of p53 level in MCF-7 cells. In kind it is cell-based, human. Particulars: for fold increase of p53 level: MCF-7, as compared to the control; for p53: MCF-7 cells treated at IC50, 48 h, control 41.26 ± 2.7. The method, then: (§13) In addition, their influence on the level of caspase-3 and p53 was estimated in the MCF-7 cell line.
as §7, §8, §9, §10, §11, §12

The test system of the next assay is caspase-3. In words: ELISA of active caspase-3 level in MCF-7 cells. The format is cell-based, human. To be noted: for fold increase of caspase-3 level: MCF-7, in comparison to the control; for Caspase-3: active caspase-3, MCF-7 cells treated at IC50, 48 h, control 35.92 ± 1.8. The method, then:
as §13, §7, §8, §9, §10, §11, §12

Assay [2] relates to MCF-7 breast cancer cell line. The experiment in a line: SRB anti-proliferative assay, MCF-7. The format is cell-based, human. Particulars: for IC50: Homo sapiens, MCF7, SRB assay, 48 h, mean ± S.D. from 3 separate experiments, read-out: IC50 MCF-7; for fold enhancement of anti-proliferative activity compared to 6a: MCF-7, ratio of IC50 values. The method, then: as §1, §2, §3, §4, §5
In general terms: Sulforhodamine B stains cellular protein and so reports cell mass.

The next assay relates to Bax/Bcl-2. The experiment in a line: Bax/Bcl-2 ratio in MCF-7 cells. Particulars: for fold increase of Bax/Bcl-2 ratio: MCF-7, vs control; for Bax/Bcl-2: MCF-7 cells treated at IC50, control 8.2. In kind it is cell-based, human. On the procedure:
as §6, §7, §8, §9, §10, §11, §12

T1 sequence (P11802 whole entry): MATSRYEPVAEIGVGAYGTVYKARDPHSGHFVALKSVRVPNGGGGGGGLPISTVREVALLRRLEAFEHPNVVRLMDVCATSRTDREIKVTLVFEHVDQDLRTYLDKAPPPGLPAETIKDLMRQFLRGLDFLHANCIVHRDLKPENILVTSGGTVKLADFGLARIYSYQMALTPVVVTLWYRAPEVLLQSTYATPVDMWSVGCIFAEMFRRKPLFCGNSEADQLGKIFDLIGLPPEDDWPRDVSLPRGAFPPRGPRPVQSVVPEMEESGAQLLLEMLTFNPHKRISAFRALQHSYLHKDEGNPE
T1 sequence (P24385 whole entry partner): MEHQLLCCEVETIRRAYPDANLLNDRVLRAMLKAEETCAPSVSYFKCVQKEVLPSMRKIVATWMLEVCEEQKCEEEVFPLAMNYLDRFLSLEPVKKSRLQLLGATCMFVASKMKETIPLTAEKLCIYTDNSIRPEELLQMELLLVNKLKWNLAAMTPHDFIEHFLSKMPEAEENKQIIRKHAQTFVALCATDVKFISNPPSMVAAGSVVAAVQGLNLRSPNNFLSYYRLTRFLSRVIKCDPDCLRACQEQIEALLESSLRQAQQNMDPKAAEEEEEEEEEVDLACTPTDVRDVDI
Chain of CDK9 (P50750 whole entry): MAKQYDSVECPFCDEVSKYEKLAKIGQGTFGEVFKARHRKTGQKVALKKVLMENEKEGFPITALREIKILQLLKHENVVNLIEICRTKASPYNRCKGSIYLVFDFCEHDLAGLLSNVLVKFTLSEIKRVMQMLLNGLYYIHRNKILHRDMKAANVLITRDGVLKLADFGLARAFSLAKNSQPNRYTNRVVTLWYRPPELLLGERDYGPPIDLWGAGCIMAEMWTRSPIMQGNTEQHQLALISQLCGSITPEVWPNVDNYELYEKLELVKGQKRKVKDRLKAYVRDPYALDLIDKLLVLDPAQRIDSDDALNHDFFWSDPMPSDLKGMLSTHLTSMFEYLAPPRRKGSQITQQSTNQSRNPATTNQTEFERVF
Chain of CDK9 (O60563 whole entry partner): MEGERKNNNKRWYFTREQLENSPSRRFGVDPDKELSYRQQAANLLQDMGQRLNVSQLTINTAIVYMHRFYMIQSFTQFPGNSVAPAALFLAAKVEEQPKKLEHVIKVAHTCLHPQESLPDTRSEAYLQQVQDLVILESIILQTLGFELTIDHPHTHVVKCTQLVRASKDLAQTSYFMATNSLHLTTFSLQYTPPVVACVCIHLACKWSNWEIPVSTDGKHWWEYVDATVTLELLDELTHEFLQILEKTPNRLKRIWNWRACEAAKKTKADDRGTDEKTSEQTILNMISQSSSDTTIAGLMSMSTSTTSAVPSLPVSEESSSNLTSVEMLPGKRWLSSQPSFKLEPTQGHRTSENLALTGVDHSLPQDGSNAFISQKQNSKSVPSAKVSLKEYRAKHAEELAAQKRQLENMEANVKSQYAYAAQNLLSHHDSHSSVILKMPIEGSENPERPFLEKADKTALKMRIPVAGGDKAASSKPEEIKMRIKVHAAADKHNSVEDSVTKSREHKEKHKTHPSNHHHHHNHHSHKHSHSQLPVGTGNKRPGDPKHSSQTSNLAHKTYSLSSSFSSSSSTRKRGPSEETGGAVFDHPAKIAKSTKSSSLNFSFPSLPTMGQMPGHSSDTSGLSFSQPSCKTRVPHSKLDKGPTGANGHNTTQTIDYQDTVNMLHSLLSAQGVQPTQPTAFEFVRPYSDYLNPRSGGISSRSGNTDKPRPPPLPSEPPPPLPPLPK
Procedure for CDK9: The in vitro CDK kinase inhibition assay was performed by Reaction Biology Corp. (PA, USA) (http://www.reactionbiology.com) Kinase HotSpotSM service.
Reaction Biology Corp. Kinase HotSpotSM service (http://www.reactionbiology.com)
was used for screening of tested compounds. CDK Kinase inhibitory activities were
assessed by the HotSpot assay platform, which contained specific kinase/substrate pairs
along with required cofactors. Base reaction buffer: 20 mM Hepes (pH 7.5), 10 mM MgCl2,
Testing compounds were dissolved in 100% DMSO to specific concentration. The serial
dilution was conducted by Integra Viaflo Assist in DMSO. The reaction mixture containing the examined compound and 33P-ATP was incubated at room temperature for
2 h and radioactivity was detected by filter-binding method. Kinase activity data were
expressed as the percent remaining kinase activity in test samples compared to vehicle

In general, IC50 refers to the midpoint of a concentration-inhibition curve. `COc1ccc2c(c1)/C(=N/NC(=O)c1cc3ccccc3[nH]1)C(=O)N2` [6f]: in [1], the half-inhibitory concentration (IC50) is 2850 ± 900 nM. The “fold potency compared to staurosporine” value in assay [1] (MDA-MB-231, ratio of IC50 values) is listed as 3.6 fold. In the assay on MCF-7 cells, the “fold increase of entire apoptosis percentage” value turned out to be 28.60 fold and the “percent of Anx V-FITC positive cells (entire apoptosis)” value turned out to be 25.17%. For the same molecule, on CDK9, the inhibition at 20 µM was 8%. Further, the inhibition at 20 µM against CDK4 was 14%. In the assay with Bcl-2, the “fold decrease of Bcl-2 level” value was 1.7 fold and the Bcl-2 is recorded as 2.73 ± 0.13 ng/mg of Total Protein. For the same molecule, in the assay on p53, the “fold increase of p53 level” value was determined as 13.3 fold and the p53 came out at 547.60 ± 29.5 pg/mg. In the assay on caspase-3, the “fold increase of caspase-3 level” value is 10.1 fold and the Caspase-3 is 364.15 ± 14.8 pg/mg. Moreover, in assay [2], the IC50 is 1850 ± 80 nM and the “fold enhancement of anti-proliferative activity compared to 6a” value is given as 1.7 fold. In the assay with Bax/Bcl-2, the “fold increase of Bax/Bcl-2 ratio” value turned out to be 12 fold and the Bax/Bcl-2 amounted to 98.6.
In the case of `Cc1ccc2c(c1)/C(=N/NC(=O)c1cc3ccccc3[nH]1)C(=O)N2` [6e], in [1], the IC50 is 22500 ± 1670 nM. Besides, in the assay on MCF-7 cells, the “fold increase of entire apoptosis percentage” value was determined as 33.75 fold and the “percent of Anx V-FITC positive cells (entire apoptosis)” value is reported as 29.7%. The inhibition at 20 µM on CDK9 stood at 18%. Further, on CDK4, half-maximal inhibition (IC50) was put at 1260 nM and the inhibition at 20 µM was 93%. Besides, in the assay on Bcl-2, the “fold decrease of Bcl-2 level” value amounted to 2.12 fold and the Bcl-2 is reported as 2.19 ± 0.10 ng/mg of Total Protein. For the same molecule, in the assay on p53, the “fold increase of p53 level” value worked out at 17 fold and the p53 turned out to be 704.39 ± 32.8 pg/mg. Moreover, in the assay on caspase-3, the “fold increase of caspase-3 level” value is 11.45 fold and the Caspase-3 was determined as 411.70 ± 12.3 pg/mg. Moreover, in assay [2], the IC50 is 390 ± 50 nM and the “fold enhancement of anti-proliferative activity compared to 6a” value is on record as 8 fold. Also, in the assay on Bax/Bcl-2, the “fold increase of Bax/Bcl-2 ratio” value was determined as 18 fold and the Bax/Bcl-2 stood at 148.5.
